In patent US12227488B2, “Small molecule degraders of Helios and methods of use” (DANA-FARBER CANCER INSTITUTE, INC., priority 2018, dated 2025):

Assays:
[1] = target: T1, CRBN and Helios (IKZF2) (Homo sapiens, UniProt Q96SW2+Q9UKS7); assay: TR-FRET dimerization assay (CRBN-IKZF2 ternary complex formation); format: binding; details: n=1
T1 construct: His (N); Strep (N)
Summary of the method: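 Compound-induced IKZF2 recruitment to CRBN was read as the 520/490 nm TR-FRET ratio after 15 min at rt. The mix held biotinylated IKZF2, BODIPY-labeled CRBN bound to DDB1 lacking the BPB propeller, tracer Tb-streptavidin and compound titrations; n=1, from ≥3 technical replicates per well.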

[2] = test system: IKZF2; assay: Cellular degradation assay, eGFP-IKZF2Δ fusion with mCherry reporter in Flp-In 293 cells; format: cell-based; details: 5 h incubation, n=1
Summary of the method: (§1)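 DC50,5 h derived by variable-slope nonlinear fit of the per-well ratio of GFP-positive to mCherry-positive cells, imaged after 5 h compound exposure at 0.5% DMSO.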

[3] = target: T2, IKZF1 (Homo sapiens, UniProt Q13422); assay: Cellular degradation assay, eGFP-IKZF1Δ fusion with mCherry reporter in Flp-In 293 cells; format: cell-based; details: 5 h incubation, n=1
T2 construct: expressed in transfected cells; host or cells: Flp-In 293
Summary of the method: as §1

[4] = target: T3, SALL4 ZNF1-2 (Homo sapiens, UniProt Q96SW2+Q9UJQ4); assay: Cellular degradation assay, eGFP-SALL4 ZnF1-2 fusion with mCherry reporter in Flp-In 293 cells; format: cell-based; details: 5 h incubation, n=1
T3 construct: IKZF1Δ, IKZF2Δ, GSPT1 and SALL4 ZnF1-2 were subcloned; expressed in transfected cells; host or cells: Flp-In 293
Method: IKZF1Δ, IKZF2Δ, GSPT1 and SALL4 ZnF1-2 were subcloned into mammalian pcDNA5/FRT Vector (Ampicillin and Hygromycin B resistant) modified to contain MCS-eGFP-P2A-mCherry. Stable cell lines expressing eGFP-protein fusion and mCherry reporter were generated using Flp-In™ 293 system. Plasmid (0.3 μg) and pOG44 (4.7 μg) DNA were preincubated in 100 μL of Opti-MEM® I (Gibco®, Life Technologies™) media containing 0.05 mg/mL Lipofectamine® 2000 (Invitrogen™) for 20 min and added to Flp-In™ 293 cells containing 1.9 ml of DMEM media (Gibco®, Life Technologies™) per well in a 6-well plate format (Falcon, 353046). Cells were propagated after 48 h and transferred into a 10 cm^2 plate (Corning, 430165) in DMEM media containing 50 μg/mL of Hygromycin B (REF 10687010, Invitrogen™) as a selection marker. Following 2-3 passage cycle, FACS (FACSAria™ II, BD) was used to enrich for cells expressing eGFP and mCherry. Cells stably expressing the IKZF1Δ, IKZF2Δ, GSPT1 or SALL4 Znf1-2 GFP fusions with mCherry reporter were seeded at 30-50% confluency in 384-well plates with 50 μL FluoroBrite™ DMEM media (Thermo Fisher Scientific, A18967) containing 10% FBS per well a day before compound treatment. Compound titrations were dispensed using a D300e Digital Dispenser (HP), normalized to 0.5% DMSO, and incubated with cells for 5 hours. The assay plate was imaged immediately using an Acumen® High Content Imager (TTP Labtech) with 488 nm and 561 nm lasers in […] grid per well format.
The resulting images were analyzed using CellProfiler™. A series of image analysis steps (‘image analysis pipeline’) was constructed. First, the red and green channels were aligned and cropped to target the middle of each well (to avoid analysis of heavily clumped cells at the edges), and a background illumination function was calculated for both red and green channels of each well individually and subtracted to correct for illumination variations across the 384-well plate from various sources of error. An additional step was then applied to the green channel to suppress the analysis of large auto fluorescent artifacts and enhance the analysis of cell specific fluorescence by way of selecting for objects under a given size, 30 A.U., and with a given shape, speckles. mCherry-positive cells were then identified in the red channel filtering for objects between 8-60 pixels in diameter and using intensity to distinguish between clumped objects. The green channel was then segmented into GFP positive and negative areas and objects were labeled as GFP positive if at least 40% of it overlapped with a GFP positive area. The fraction of GFP-positive cells/mCherry-positive cells in each well was then calculated, and the green and red images were rescaled for visualization.

[5] = target: GSPT1 (Homo sapiens, UniProt P15170+Q96SW2); assay: Cellular degradation assay, eGFP-GSPT1 fusion with mCherry reporter in Flp-In 293 cells; format: cell-based; set-up: expressed in transfected cells; host or cells: Flp-In 293; details: 5 h incubation, n=1
Summary of the method: as §1

[6] = compound concentration 6.6667E−05
[7] = compound concentration 6.6667E−06
[8] = compound concentration 6.6667E−07 (667 nM)
[9] = compound concentration 2.00E−05
[10] = compound concentration 2.00E−06
[11] = compound concentration 2.00E−07

T1 sequence (Q96SW2 whole entry): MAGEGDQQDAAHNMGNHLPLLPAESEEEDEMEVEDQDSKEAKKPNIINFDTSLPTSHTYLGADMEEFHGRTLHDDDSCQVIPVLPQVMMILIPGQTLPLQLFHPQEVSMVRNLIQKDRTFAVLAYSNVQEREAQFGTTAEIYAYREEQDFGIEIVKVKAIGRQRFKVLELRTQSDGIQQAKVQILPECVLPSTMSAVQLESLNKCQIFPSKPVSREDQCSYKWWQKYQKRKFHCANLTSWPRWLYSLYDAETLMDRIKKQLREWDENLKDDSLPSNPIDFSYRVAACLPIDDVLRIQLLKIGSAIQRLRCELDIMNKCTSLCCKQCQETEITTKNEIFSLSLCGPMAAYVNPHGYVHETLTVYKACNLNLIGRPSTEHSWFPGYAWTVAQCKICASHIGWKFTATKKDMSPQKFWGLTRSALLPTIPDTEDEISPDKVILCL
T1 sequence (Q9UKS7 whole entry): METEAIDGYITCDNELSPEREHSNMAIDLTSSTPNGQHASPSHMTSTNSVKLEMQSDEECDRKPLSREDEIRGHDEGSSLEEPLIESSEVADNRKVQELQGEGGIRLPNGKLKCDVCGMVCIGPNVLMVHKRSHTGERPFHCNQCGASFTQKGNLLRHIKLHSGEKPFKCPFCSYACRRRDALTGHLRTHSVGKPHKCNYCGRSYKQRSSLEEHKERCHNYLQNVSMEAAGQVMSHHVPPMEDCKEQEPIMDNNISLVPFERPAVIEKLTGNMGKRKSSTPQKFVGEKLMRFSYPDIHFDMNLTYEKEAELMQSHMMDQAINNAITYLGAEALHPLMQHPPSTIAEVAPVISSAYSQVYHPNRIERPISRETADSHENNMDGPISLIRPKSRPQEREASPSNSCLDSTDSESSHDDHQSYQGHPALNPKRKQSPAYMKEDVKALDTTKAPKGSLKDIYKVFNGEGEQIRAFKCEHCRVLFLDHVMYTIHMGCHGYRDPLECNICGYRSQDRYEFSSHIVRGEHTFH
Sequence of GSPT1 (P15170 whole entry, the tested form may be a part): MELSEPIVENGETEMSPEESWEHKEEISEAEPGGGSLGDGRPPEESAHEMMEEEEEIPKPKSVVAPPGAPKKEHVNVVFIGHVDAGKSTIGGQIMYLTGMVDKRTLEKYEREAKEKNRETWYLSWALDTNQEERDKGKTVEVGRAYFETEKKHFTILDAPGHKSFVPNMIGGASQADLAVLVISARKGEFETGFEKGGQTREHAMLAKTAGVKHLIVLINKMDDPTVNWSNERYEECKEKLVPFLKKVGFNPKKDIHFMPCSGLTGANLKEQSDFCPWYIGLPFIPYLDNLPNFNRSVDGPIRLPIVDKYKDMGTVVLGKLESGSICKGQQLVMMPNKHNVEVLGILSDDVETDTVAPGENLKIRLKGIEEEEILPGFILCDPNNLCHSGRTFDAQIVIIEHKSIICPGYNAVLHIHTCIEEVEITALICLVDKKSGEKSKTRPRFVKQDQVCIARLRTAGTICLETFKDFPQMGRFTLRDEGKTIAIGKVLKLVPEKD
Sequence of GSPT1 (Q96SW2 whole entry, the tested form may be a part): as the sequence (Q96SW2 whole entry) above
Sequence of GSPT1 (Q16531 whole entry partner, the tested form may be a part): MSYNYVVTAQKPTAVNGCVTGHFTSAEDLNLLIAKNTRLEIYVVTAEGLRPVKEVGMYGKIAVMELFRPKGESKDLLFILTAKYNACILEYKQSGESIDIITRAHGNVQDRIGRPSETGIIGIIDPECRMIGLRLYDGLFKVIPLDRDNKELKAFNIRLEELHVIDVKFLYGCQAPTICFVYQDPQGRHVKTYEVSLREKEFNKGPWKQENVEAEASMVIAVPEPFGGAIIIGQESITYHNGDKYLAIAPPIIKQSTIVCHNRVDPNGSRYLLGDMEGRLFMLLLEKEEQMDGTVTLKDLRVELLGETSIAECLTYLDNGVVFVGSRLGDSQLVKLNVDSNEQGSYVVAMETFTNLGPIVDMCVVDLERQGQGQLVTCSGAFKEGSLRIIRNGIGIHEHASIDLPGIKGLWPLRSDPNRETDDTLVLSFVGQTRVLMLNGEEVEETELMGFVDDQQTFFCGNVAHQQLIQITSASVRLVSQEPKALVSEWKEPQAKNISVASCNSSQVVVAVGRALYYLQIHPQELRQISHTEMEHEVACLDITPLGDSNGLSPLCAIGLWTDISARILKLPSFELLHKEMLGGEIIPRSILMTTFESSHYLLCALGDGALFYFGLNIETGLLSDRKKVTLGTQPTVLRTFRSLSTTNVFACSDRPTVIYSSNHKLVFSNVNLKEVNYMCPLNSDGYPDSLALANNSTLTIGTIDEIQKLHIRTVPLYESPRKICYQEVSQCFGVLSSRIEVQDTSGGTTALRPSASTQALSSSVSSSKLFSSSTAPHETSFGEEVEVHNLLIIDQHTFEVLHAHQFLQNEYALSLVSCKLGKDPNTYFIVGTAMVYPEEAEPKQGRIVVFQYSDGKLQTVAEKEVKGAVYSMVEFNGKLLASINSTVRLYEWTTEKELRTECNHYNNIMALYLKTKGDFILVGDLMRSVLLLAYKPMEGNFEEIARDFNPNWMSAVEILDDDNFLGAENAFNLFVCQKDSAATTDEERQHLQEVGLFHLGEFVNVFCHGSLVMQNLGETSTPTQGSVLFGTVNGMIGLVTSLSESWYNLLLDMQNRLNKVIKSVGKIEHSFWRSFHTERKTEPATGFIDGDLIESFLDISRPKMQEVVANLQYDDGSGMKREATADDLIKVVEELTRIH
T2 sequence (Q13422 83-213 isoform Q13422-7 limits assumed): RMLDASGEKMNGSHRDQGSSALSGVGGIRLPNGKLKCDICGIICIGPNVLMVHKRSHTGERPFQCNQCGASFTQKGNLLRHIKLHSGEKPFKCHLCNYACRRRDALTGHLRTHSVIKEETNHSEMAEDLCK
T2 sequence (Q96SW2 whole entry partner, the tested form may be a part): as the sequence (Q96SW2 whole entry) above
T2 sequence (Q16531 2-1140 partner limits assumed): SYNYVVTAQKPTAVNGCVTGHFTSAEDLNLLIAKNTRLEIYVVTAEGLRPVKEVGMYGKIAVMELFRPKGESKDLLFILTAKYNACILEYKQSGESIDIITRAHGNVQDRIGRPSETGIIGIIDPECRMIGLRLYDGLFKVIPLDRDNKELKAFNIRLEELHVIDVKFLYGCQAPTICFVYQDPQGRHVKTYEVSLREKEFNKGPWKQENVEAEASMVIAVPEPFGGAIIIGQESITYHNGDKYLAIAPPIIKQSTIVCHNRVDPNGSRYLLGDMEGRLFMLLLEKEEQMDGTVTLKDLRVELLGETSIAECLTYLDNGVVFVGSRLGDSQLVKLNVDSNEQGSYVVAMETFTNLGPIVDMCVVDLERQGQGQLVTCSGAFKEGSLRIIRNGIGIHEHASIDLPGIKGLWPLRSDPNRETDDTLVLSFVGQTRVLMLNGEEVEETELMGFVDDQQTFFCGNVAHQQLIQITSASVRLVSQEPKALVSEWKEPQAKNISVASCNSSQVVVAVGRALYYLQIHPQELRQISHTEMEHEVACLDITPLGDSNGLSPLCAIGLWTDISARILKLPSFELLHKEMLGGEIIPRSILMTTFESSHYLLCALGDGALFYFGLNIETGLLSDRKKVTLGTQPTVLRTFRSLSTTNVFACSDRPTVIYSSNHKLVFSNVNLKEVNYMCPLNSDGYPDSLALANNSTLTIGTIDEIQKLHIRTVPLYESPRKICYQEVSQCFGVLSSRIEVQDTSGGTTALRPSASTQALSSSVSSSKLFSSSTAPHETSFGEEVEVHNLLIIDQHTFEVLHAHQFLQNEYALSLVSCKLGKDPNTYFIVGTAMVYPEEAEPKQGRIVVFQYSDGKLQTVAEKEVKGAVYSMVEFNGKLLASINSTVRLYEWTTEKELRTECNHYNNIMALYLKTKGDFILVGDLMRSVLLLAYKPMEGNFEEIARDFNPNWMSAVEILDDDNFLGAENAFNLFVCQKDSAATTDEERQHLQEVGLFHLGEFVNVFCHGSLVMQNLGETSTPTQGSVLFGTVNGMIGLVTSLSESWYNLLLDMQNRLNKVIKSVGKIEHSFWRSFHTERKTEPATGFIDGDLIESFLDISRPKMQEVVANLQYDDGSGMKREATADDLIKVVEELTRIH
T3 sequence (Q9UJQ4 378-438 limits assumed): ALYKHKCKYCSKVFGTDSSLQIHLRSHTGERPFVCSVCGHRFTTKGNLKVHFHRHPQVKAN
T3 sequence (Q96SW2 whole entry, the tested form may be a part): as the sequence (Q96SW2 whole entry) above
T3 sequence (Q16531 whole entry partner, the tested form may be a part): as the sequence (Q16531 whole entry partner, the tested form may be a part) above

SMILES	TR-FRET-IKZF2 (Normalized to CC-885) [1, 6]	TR-FRET-IKZF2 (Normalized to CC-885) [1, 7]	TR-FRET-IKZF2 (Normalized to CC-885) [1, 8]	IKZF2 GFP/RFP Relative Abundance [2, 9]	IKZF2 GFP/RFP Relative Abundance [2, 10]	IKZF2 GFP/RFP Relative Abundance [2, 11]	IKZF1 GFP/RFP Relative Abundance [3, 9]	IKZF1 GFP/RFP Relative Abundance [3, 10]	IKZF1 GFP/RFP Relative Abundance [3, 11]	SALL4 ZNF1-2 GFP/RFP Relative Abundance [4, 9]	SALL4 ZNF1-2 GFP/RFP Relative Abundance [4, 10]	SALL4 ZNF1-2 GFP/RFP Relative Abundance [4, 11]	GSPT1 GFP/RFP Relative Abundance [5, 9]	GSPT1 GFP/RFP Relative Abundance [5, 10]	GSPT1 GFP/RFP Relative Abundance [5, 11]
O=C1CCC(N2C(=O)C=C(Nc3cnc4ccccc4c3)C2=O)C(=O)N1 (stereo not drawn) [Compound 27, 3-(2,5-dioxo-3-(quinolin-3-ylamino)-2,5-dihydro-1H-pyrrol-1-yl)piperidine-2,6-dione]	0.137	0.105	0.084	1.004	0.990	0.931	0.701	0.776	0.801	1.026	1.005	0.913	0.881	1.083	0.987
CN(C1=CC(=O)N(C2CCC(=O)NC2=O)C1=O)c1ccccc1 (stereo not drawn) [Compound 28, 3-(3-(methyl(phenyl)amino)-2,5-dioxo-2,5-dihydro-1H-pyrrol-1-yl)piperidine-2,6-dione]	0.072	0.050	0.053	1.006	1.011	1.064	0.978	0.996	1.029	0.969	0.936	0.946	1.001	0.917	0.805
O=C1CCC(N2C(=O)C=C(Nc3ccc(-n4ccnc4)cc3)C2=O)C(=O)N1 (stereo not drawn) [Compound 29, 3-(3-((4-(1H-imidazol-1-yl)phenyl)amino)-2,5-dioxo-2,5-dihydro-1H-pyrrol-1-yl)piperidine-2,6-dione]	0.347	0.297	0.270	0.982	1.005	0.942	0.495	0.516	0.602	0.958	0.913	0.908	0.790	0.913	0.729
CCOC(=O)c1cccc(NC2=CC(=O)N(C3CCC(=O)NC3=O)C2=O)c1 (stereo not drawn) [Compound 30, Ethyl 3-((1-(2,6-dioxopiperidin-3-yl)-2,5-dioxo-2,5-dihydro-1H-pyrrol-3-yl)amino)benzoate]	0.386	0.324	0.228	0.916	0.928	0.979	0.388	0.437	0.631	0.815	0.786	0.896	1.100	1.129	1.192
